Reference: PMC3465515 (Nuclear medicine and biology, 2012)
Like-named read-outs stand apart in the source and are kept apart here.

Key:
[1] = preliminary tissue distribution of [18F]6 in female C57BL/6 mice; type: in vivo; conditions: data not shown
[2] = type: in vivo, Sprague-Dawley rats; conditions: 1 h, Letrozole + PMSG treated
[3] = biodistribution of [18F]6 in immature female Sprague-Dawley rats; type: in vivo; conditions: 1 h

SMILES: C[C@]12CC[C@@H]3c4ccc(O)cc4CC[C@@]3(CC[18F])[C@@H]1CC[C@@H]2O [[^18F]6, 8β-(2-[^18F]fluoroethyl)estradiol]
- tissue distribution (in words) [1]: elevated lung uptake
- percentage injected dose/gram, blood ([2]; DPN blocked (200 μg)): 0.17 ± 0.03 %ID/g
- percentage injected dose/gram, blood ([2]; E2 blocked (estradiol 20 μg)): 0.19 ± 0.02 %ID/g
- percentage injected dose/gram, blood ([2]; PPT blocked (200 μg)): 0.16 ± 0.03 %ID/g
- percentage injected dose/gram, blood ([2]; 18 μCi iv): 0.23 ± 0.07 %ID/g
- percentage injected dose/gram, bone ([2]; DPN blocked (200 μg)): 0.37 ± 0.07 %ID/g
- percentage injected dose/gram, bone ([2]; E2 blocked (estradiol 20 μg)): 0.33 ± 0.02 %ID/g
- percentage injected dose/gram, bone ([2]; PPT blocked (200 μg)): 0.34 ± 0.05 %ID/g
- percentage injected dose/gram, bone ([2]; 18 μCi iv): 0.40 ± 0.10 %ID/g
- percentage injected dose/gram, fat ([2]; DPN blocked (200 μg)): 0.53 ± 0.18 %ID/g
- percentage injected dose/gram, fat ([2]; E2 blocked (estradiol 20 μg)): 0.50 ± 0.11 %ID/g
- percentage injected dose/gram, fat ([2]; PPT blocked (200 μg)): 0.53 ± 0.16 %ID/g
- percentage injected dose/gram, fat ([2]; 18 μCi iv): 0.49 ± 0.12 %ID/g
- percentage injected dose/gram, heart ([2]; DPN blocked (200 μg)): 0.15 ± 0.02 %ID/g
- percentage injected dose/gram, heart ([2]; E2 blocked (estradiol 20 μg)): 0.14 ± 0.01 %ID/g
- percentage injected dose/gram, heart ([2]; PPT blocked (200 μg)): 0.14 ± 0.02 %ID/g
- percentage injected dose/gram, heart ([2]; 18 μCi iv): 0.17 ± 0.03 %ID/g
- percentage injected dose/gram, kidney ([2]; DPN blocked (200 μg)): 0.59 ± 0.11 %ID/g
- percentage injected dose/gram, kidney ([2]; E2 blocked (estradiol 20 μg)): 0.55 ± 0.08 %ID/g
- percentage injected dose/gram, kidney ([2]; PPT blocked (200 μg)): 0.51 ± 0.09 %ID/g
- percentage injected dose/gram, kidney ([2]; 18 μCi iv): 0.66 ± 0.12 %ID/g
- percentage injected dose/gram, liver ([2]; DPN blocked (200 μg)): 1.41 ± 0.22 %ID/g
- percentage injected dose/gram, liver ([2]; E2 blocked (estradiol 20 μg)): 1.51 ± 0.13 %ID/g
- percentage injected dose/gram, liver ([2]; PPT blocked (200 μg)): 1.40 ± 0.12 %ID/g
- percentage injected dose/gram, liver ([2]; 18 μCi iv): 1.67 ± 0.31 %ID/g
- percentage injected dose/gram, lung ([2]; DPN blocked (200 μg)): 0.36 ± 0.05 %ID/g
- percentage injected dose/gram, lung ([2]; E2 blocked (estradiol 20 μg)): 0.38 ± 0.04 %ID/g
- percentage injected dose/gram, lung ([2]; PPT blocked (200 μg)): 0.36 ± 0.06 %ID/g
- percentage injected dose/gram, lung ([2]; 18 μCi iv): 0.41 ± 0.02 %ID/g
- percentage injected dose/gram, muscle ([2]; DPN blocked (200 μg)): 0.13 ± 0.02 %ID/g
- percentage injected dose/gram, muscle ([2]; E2 blocked (estradiol 20 μg)): 0.12 ± 0.01 %ID/g
- percentage injected dose/gram, muscle ([2]; PPT blocked (200 μg)): 0.12 ± 0.02 %ID/g
- percentage injected dose/gram, muscle ([2]; 18 μCi iv): 0.14 ± 0.03 %ID/g
- percentage injected dose/gram, ovaries ([2]; DPN blocked (200 μg)): 0.32 ± 0.10 %ID/g
- percentage injected dose/gram, ovaries ([2]; E2 blocked (estradiol 20 μg)): 0.30 ± 0.06 %ID/g
- percentage injected dose/gram, ovaries ([2]; PPT blocked (200 μg)): 0.30 ± 0.05 %ID/g
- percentage injected dose/gram, ovaries ([2]; 18 μCi iv): 0.34 ± 0.04 %ID/g
- percentage injected dose/gram, spleen ([2]; DPN blocked (200 μg)): 0.12 ± 0.01 %ID/g
- percentage injected dose/gram, spleen ([2]; E2 blocked (estradiol 20 μg)): 0.12 ± 0.07 %ID/g
- percentage injected dose/gram, spleen ([2]; PPT blocked (200 μg)): 0.12 ± 0.02 %ID/g
- percentage injected dose/gram, spleen ([2]; 18 μCi iv): 0.13 ± 0.16 %ID/g
- percentage injected dose/gram, thymus ([2]; DPN blocked (200 μg)): 0.09 ± 0.02 %ID/g
- percentage injected dose/gram, thymus ([2]; E2 blocked (estradiol 20 μg)): 0.10 ± 0.01 %ID/g
- percentage injected dose/gram, thymus ([2]; PPT blocked (200 μg)): 0.08 ± 0.01 %ID/g
- percentage injected dose/gram, thymus ([2]; 18 μCi iv): 0.10 ± 0.01 %ID/g
- percentage injected dose/gram, uterus ([2]; DPN blocked (200 μg)): 0.22 ± 0.03 %ID/g
- percentage injected dose/gram, uterus ([2]; E2 blocked (estradiol 20 μg)): 0.20 ± 0.04 %ID/g
- percentage injected dose/gram, uterus ([2]; PPT blocked (200 μg)): 0.19 ± 0.02 %ID/g
- percentage injected dose/gram, uterus ([2]; 18 μCi iv): 0.26 ± 0.07 %ID/g
- percentage injected dose/gram, blood ([3]; DPN blocked (200 μg)): 0.22 ± 0.03 %ID/g
- percentage injected dose/gram, blood ([3]; E2 blocked (estradiol 20 μg)): 0.25 ± 0.07 %ID/g
- percentage injected dose/gram, blood ([3]; PPT blocked (200 μg)): 0.24 ± 0.06 %ID/g
- percentage injected dose/gram, blood ([3]; 13 μCi iv): 0.22 ± 0.05 %ID/g
- percentage injected dose/gram, bone ([3]; DPN blocked (200 μg)): 0.40 ± 0.04 %ID/g
- percentage injected dose/gram, bone ([3]; E2 blocked (estradiol 20 μg)): 0.37 ± 0.04 %ID/g
- percentage injected dose/gram, bone ([3]; PPT blocked (200 μg)): 0.43 ± 0.12 %ID/g
- percentage injected dose/gram, bone ([3]; 13 μCi iv): 0.36 ± 0.04 %ID/g
- percentage injected dose/gram, fat ([3]; DPN blocked (200 μg)): 0.58 ± 0.08 %ID/g
- percentage injected dose/gram, fat ([3]; E2 blocked (estradiol 20 μg)): 0.58 ± 0.10 %ID/g
- percentage injected dose/gram, fat ([3]; PPT blocked (200 μg)): 0.68 ± 0.19 %ID/g
- percentage injected dose/gram, fat ([3]; 13 μCi iv): 0.55 ± 0.09 %ID/g
- percentage injected dose/gram, heart ([3]; DPN blocked (200 μg)): 0.18 ± 0.03 %ID/g
- percentage injected dose/gram, heart ([3]; E2 blocked (estradiol 20 μg)): 0.21 ± 0.04 %ID/g
- percentage injected dose/gram, heart ([3]; PPT blocked (200 μg)): 0.19 ± 0.04 %ID/g
- percentage injected dose/gram, heart ([3]; 13 μCi iv): 0.18 ± 0.04 %ID/g
- percentage injected dose/gram, kidney ([3]; DPN blocked (200 μg)): 0.70 ± 0.10 %ID/g
- percentage injected dose/gram, kidney ([3]; E2 blocked (estradiol 20 μg)): 0.78 ± 0.15 %ID/g
- percentage injected dose/gram, kidney ([3]; PPT blocked (200 μg)): 0.78 ± 0.19 %ID/g
- percentage injected dose/gram, kidney ([3]; 13 μCi iv): 0.64 ± 0.14 %ID/g
- percentage injected dose/gram, liver ([3]; DPN blocked (200 μg)): 1.50 ± 0.20 %ID/g
- percentage injected dose/gram, liver ([3]; E2 blocked (estradiol 20 μg)): 1.63 ± 0.26 %ID/g
- percentage injected dose/gram, liver ([3]; PPT blocked (200 μg)): 1.54 ± 0.39 %ID/g
- percentage injected dose/gram, liver ([3]; 13 μCi iv): 1.52 ± 0.23 %ID/g
- percentage injected dose/gram, lung ([3]; DPN blocked (200 μg)): 0.33 ± 0.05 %ID/g
- percentage injected dose/gram, lung ([3]; E2 blocked (estradiol 20 μg)): 0.39 ± 0.06 %ID/g
- percentage injected dose/gram, lung ([3]; PPT blocked (200 μg)): 0.45 ± 0.12 %ID/g
- percentage injected dose/gram, lung ([3]; 13 μCi iv): 0.39 ± 0.09 %ID/g
- percentage injected dose/gram, muscle ([3]; DPN blocked (200 μg)): 0.15 ± 0.01 %ID/g
- percentage injected dose/gram, muscle ([3]; E2 blocked (estradiol 20 μg)): 0.19 ± 0.05 %ID/g
- percentage injected dose/gram, muscle ([3]; PPT blocked (200 μg)): 0.19 ± 0.05 %ID/g
- percentage injected dose/gram, muscle ([3]; 13 μCi iv): 0.15 ± 0.03 %ID/g
- percentage injected dose/gram, ovaries ([3]; DPN blocked (200 μg)): 0.33 ± 0.04 %ID/g
- percentage injected dose/gram, ovaries ([3]; E2 blocked (estradiol 20 μg)): 0.44 ± 0.15 %ID/g
- percentage injected dose/gram, ovaries ([3]; PPT blocked (200 μg)): 0.37 ± 0.13 %ID/g
- percentage injected dose/gram, ovaries ([3]; 13 μCi iv): 0.30 ± 0.11 %ID/g
- blocking of ovary uptake by estradiol, DPN or PPT (in words) ([3]; ovary): nor was it substantially blocked by any of the three agents
- percentage injected dose/gram, spleen ([3]; DPN blocked (200 μg)): 0.15 ± 0.02 %ID/g
- percentage injected dose/gram, spleen ([3]; E2 blocked (estradiol 20 μg)): 0.16 ± 0.03 %ID/g
- percentage injected dose/gram, spleen ([3]; PPT blocked (200 μg)): 0.16 ± 0.05 %ID/g
- percentage injected dose/gram, spleen ([3]; 13 μCi iv): 0.15 ± 0.03 %ID/g
- percentage injected dose/gram, thymus ([3]; DPN blocked (200 μg)): 0.12 ± 0.02 %ID/g
- percentage injected dose/gram, thymus ([3]; E2 blocked (estradiol 20 μg)): 0.13 ± 0.03 %ID/g
- percentage injected dose/gram, thymus ([3]; PPT blocked (200 μg)): 0.12 ± 0.02 %ID/g
- percentage injected dose/gram, thymus ([3]; 13 μCi iv): 0.12 ± 0.03 %ID/g
- percentage injected dose/gram, uterus ([3]; DPN blocked (200 μg)): 0.23 ± 0.05 %ID/g
- percentage injected dose/gram, uterus ([3]; E2 blocked (estradiol 20 μg)): 0.38 ± 0.25 %ID/g
- percentage injected dose/gram, uterus ([3]; PPT blocked (200 μg)): 0.35 ± 0.15 %ID/g
- percentage injected dose/gram, uterus ([3]; 13 μCi iv): 0.33 ± 0.14 %ID/g
